From article PMC12647645, “Structural interactions of BWC0977 with Klebsiella pneumoniae topoisomerase IV and biochemical basis of its broad-spectrum activity” (Communications Biology, 2025)
Converted amounts (≈) assume the structure as drawn. “And” between values parts separate entries of the source, which are not always exact repeats. Identical values can stand only once.

What was measured:
K. pneumoniae = conditions: ref 6 (Hameed P et al., 2024); cited from earlier work
E. coli topoisomerase IV = target: T1, E. coli topoisomerase IV (Escherichia coli, UniProt P0AFI2+P20083); test: biochemical; format: biochemical; conditions: E. coli topo IV, source data Fig 2A
T1 construct: purchased Inspiralis
T1 sequence (P20083 whole entry): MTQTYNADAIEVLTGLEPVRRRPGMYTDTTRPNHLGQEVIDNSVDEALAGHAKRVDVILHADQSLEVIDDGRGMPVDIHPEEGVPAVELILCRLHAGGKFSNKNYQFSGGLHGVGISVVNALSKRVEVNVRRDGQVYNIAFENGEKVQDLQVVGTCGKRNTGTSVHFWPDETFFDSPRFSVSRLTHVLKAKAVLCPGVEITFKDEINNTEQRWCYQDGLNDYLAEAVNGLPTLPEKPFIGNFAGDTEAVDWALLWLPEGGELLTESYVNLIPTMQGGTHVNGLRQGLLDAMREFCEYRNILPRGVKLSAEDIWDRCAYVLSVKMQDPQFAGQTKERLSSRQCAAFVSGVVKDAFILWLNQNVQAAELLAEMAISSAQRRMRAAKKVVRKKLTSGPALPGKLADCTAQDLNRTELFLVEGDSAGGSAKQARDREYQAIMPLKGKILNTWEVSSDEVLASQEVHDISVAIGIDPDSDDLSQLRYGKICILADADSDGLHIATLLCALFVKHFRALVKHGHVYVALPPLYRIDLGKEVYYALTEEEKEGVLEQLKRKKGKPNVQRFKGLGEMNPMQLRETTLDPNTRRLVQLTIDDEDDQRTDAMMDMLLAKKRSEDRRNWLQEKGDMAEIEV
T1 sequence (P0AFI2 whole entry): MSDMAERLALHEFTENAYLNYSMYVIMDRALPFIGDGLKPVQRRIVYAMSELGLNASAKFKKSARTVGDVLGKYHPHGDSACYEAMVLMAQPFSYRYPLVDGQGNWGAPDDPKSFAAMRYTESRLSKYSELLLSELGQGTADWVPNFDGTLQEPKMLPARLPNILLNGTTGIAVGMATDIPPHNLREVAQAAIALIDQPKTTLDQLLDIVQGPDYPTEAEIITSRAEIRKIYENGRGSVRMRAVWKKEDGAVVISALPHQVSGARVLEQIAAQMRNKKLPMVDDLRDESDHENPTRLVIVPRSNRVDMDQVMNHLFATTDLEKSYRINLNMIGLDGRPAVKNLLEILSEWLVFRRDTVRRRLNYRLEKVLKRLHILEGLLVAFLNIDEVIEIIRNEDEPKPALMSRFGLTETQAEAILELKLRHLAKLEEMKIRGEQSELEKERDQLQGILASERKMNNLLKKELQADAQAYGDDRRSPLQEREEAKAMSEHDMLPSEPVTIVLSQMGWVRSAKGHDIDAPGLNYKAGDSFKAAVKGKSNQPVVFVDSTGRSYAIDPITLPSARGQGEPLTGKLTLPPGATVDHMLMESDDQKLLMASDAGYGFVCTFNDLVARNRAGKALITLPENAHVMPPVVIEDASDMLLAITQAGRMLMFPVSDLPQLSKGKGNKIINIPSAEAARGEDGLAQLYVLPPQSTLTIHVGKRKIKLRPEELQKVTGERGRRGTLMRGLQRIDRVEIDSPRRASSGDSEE

A. baumannii = test system: A. baumannii; set-up: method as in ref 6 (Hameed P et al., 2024); conditions: ref 6 (Hameed P et al., 2024); cited from earlier work
[1] = target: S. aureus topoisomerase IV (Staphylococcus aureus, UniProt P0C1S7+P0C1U9); test: biochemical; conditions: source data Fig 2C; for Topo IV decatenation inhibition response: S. aureus topo IV
Protocol: (§1) Assays with P. aeruginosa topoisomerase IV (3 nM) were conducted in a similar buffer but with 50 mM HEPES-KOH (pH 7.9), 100 mM potassium glutamate, 6 mM magnesium acetate, 6 mM DTT, 1 mM ATP, 2 mM spermidine, and 50 μg/mL albumin. For S. aureus topoisomerase IV assay, the reactions contained 4 nM enzyme in an assay buffer composed of 50 mM Tris-HCl (pH 7.5), 5 mM MgCl₂, 5 mM DTT, 1.5 mM ATP, 350 mM potassium glutamate, and 0.05 mg/mL albumin. The procedures followed were consistent with those used in the supercoiling assays. Decatenated minicircles were resolved on 0.8% agarose gels, while the kDNA substrate remained in the wells. Gels were stained with 0.8 μg/mL ethidium bromide solution for 10 min, followed by destaining. DNA bands were visualized using a gel documentation system, and compound inhibition analysis was carried out using the same procedures described for the supercoiling assays.

P. aeruginosa = test system: P. aeruginosa; set-up: method as in ref 6 (Hameed P et al., 2024); conditions: ref 6 (Hameed P et al., 2024); cited from earlier work
A. baumannii ATCC 19606 = test: In vitro spontaneous resistance frequency; format: cell-based; conditions: colonies selected at 4× MIC of the same compound
Protocol: (§2) Spontaneous resistance frequencies to BWC0977 were evaluated in E. coli ATCC 25922, P. aeruginosa ATCC 27853, and A. baumannii ATCC 19606. Mid-logarithmic phase cultures (~10^9 CFU/mL) were plated onto Luria-Bertani agar containing BWC0977 at 4×, 8×, and 16× the respective MICs. Plates were incubated at 37 °C for 24–36 h, and resistance frequencies were estimated by counting colony-forming units (CFUs) on the drug-containing plates. MICs of the isolated colonies were determined, and the gyrA, gyrB, parC, and parE genes were sequenced to assess for target-site mutations.

E. coli ATCC 25922 = test: In vitro spontaneous resistance frequency; format: cell-based; conditions: 4× MIC
Protocol: as §2

[2] = target: P. aeruginosa topoisomerase IV (Pseudomonas aeruginosa, UniProt Q9HUJ8+Q9HUK1); test: Topoisomerase IV decatenation assay, P. aeruginosa; format: biochemical; conditions: for Topo IV decatenation inhibition response: P. aeruginosa topo IV
Protocol: as §1, with “Topoisomerase IV decatenation reactions were performed using 2.5 nM E. coli enzyme and 60 ng kinetoplast DNA (kDNA) in an assay buffer containing 50 mM HEPES-KOH (pH 7.6), 100 mM potassium glutamate, 10 mM magnesium acetate, 10 mM DTT, 1 mM ATP, and 50 μg/mL albumin. Assays” for “Assays”

[3] = target: K. pneumoniae fusion-truncated topoisomerase IV (ParE30-(Glu-Ser)-ParC55) (Klebsiella pneumoniae); test: crystal structure; ternary complex of ParEC core dimer, 26-bp DNA duplex and BWC0977 (23 uM ParEC core: 28 uM dsDNA: 200 uM BWC0977); sitting-drop vapor diffusion at 20 °C, 17% PEG 3350, 0.1 M sodium formate, 100 mM Bis-Tris propane pH 8.5; 3.05 Å
[4] = target: ParEC core (ParE-ES-ParC fusion, topoisomerase IV) (Klebsiella pneumoniae, UniProt A6TE19 400-631+=ES+A6TE12:1-488, internal_change); test: X-ray crystallography (3.05 Å); BWC0977 (one molecule intercalated between DNA bases +2 and +3); Crystallization conditions not in material; protein in 20 mM Tris-HCl pH 7.5, 100 mM NaCl, 2 mM TCEP (6 mg/mL); DNA in nuclease-free water; conditions: protein: recombinant; tags: C-terminal His6; chain copies: 2; blunt; self-complementary, 2 copies of the strand

O=C(O)c1cn(C2CC2)c2cc(N3CCNCC3)c(F)cc2c1=O [Ciprofloxacin, reference compound]
MIC90 against diverse global isolates (K. pneumoniae): > 32 µg/mL
Topo IV decatenation inhibition response (E. coli topoisomerase IV; compound 2.34375 μM, 2.34375 µM): 0
Topo IV decatenation inhibition response (E. coli topoisomerase IV; compound 4.6875 μM, 4.6875 µM): 17.91 and 12.76
inhibition at 4.6875 µM (E. coli topoisomerase IV; compound 4.6875 μM, read-out: Topo IV decatenation inhibition response): 12.2%
Topo IV decatenation inhibition response (E. coli topoisomerase IV; compound 9.375 μM, 9.375 µM): 51.63 and 50.29
inhibition at 9.375 µM (E. coli topoisomerase IV; compound 9.375 μM, read-out: Topo IV decatenation inhibition response): 43.7%
Topo IV decatenation inhibition response (E. coli topoisomerase IV; compound 18.75 μM, 18.75 µM): 65.07 and 61.86
inhibition at 18.75 µM (E. coli topoisomerase IV; compound 18.75 μM, read-out: Topo IV decatenation inhibition response): 76.9%
Topo IV decatenation inhibition response (E. coli topoisomerase IV; compound 37.5 μM, 37.5 µM): 82.71 and 68.2 and 60.49
Topo IV decatenation inhibition response (E. coli topoisomerase IV; compound 75 μM, 75 µM): 75.94 and 67.64
inhibition at 75 µM (E. coli topoisomerase IV; compound 75 μM, read-out: Topo IV decatenation inhibition response): 84.2%
Topo IV decatenation inhibition response (E. coli topoisomerase IV; compound 150 μM, 150 µM): 82.92 and 70.66 and 58.85
MIC90 against diverse global isolates (A. baumannii): > 32 µg/mL
Topo IV decatenation inhibition response ([1]; compound 0.823 μM, 0.823 µM): 25.54
Topo IV decatenation inhibition response ([1]; compound 2.469 μM, 2.469 µM): 28.07
Topo IV decatenation inhibition response ([1]; compound 7.407 μM, 7.407 µM): 38.66
Topo IV decatenation inhibition response ([1]; compound 22.222 μM, 22.222 µM): 96.26
Topo IV decatenation inhibition response ([1]; compound 66.67 μM, 66.67 µM): 92.59
Topo IV decatenation inhibition response ([1]; compound 200 μM, 200 µM): 98.71
inhibition at 0.823 µM ([1]; read-out: Topo IV decatenation inhibition response, S. aureus topo IV, compound 0.823 μM): 21.1%
inhibition at 2.469 µM ([1]; read-out: Topo IV decatenation inhibition response, S. aureus topo IV, compound 2.469 μM): 31.3%
inhibition at 7.407 µM ([1]; read-out: Topo IV decatenation inhibition response, S. aureus topo IV, compound 7.407 μM): 27.1%
inhibition at 22.222 µM ([1]; read-out: Topo IV decatenation inhibition response, S. aureus topo IV, compound 22.222 μM): 99.1%
inhibition at 66.67 µM ([1]; read-out: Topo IV decatenation inhibition response, S. aureus topo IV, compound 66.67 μM): 97.3%
inhibition at 200 µM ([1]; read-out: Topo IV decatenation inhibition response, S. aureus topo IV, compound 200 μM): 99%
MIC90 against diverse global isolates (P. aeruginosa): 16 µg/mL (≈ 48.3 µM)
MIC increase of resistant colonies (A. baumannii ATCC 19606): 4- to 32 fold
resistance frequency (E. coli ATCC 25922): 5 × 10^−9
IC50 [2]: 31.2 µM
Topo IV decatenation inhibition response ([2]; compound 0.293 μM, source data Fig 2B, 0.293 µM): 3.42
Topo IV decatenation inhibition response ([2]; compound 9.375 μM, source data Fig 2B, 9.375 µM): 6.96
Topo IV decatenation inhibition response ([2]; compound 37.5 μM, source data Fig 2B, 37.5 µM): 41.68 and 65.61
Topo IV decatenation inhibition response ([2]; compound 75 μM, source data Fig 2B, 75 µM): 53.28 and 77.23
Topo IV decatenation inhibition response ([2]; compound 150 μM, source data Fig 2B, 150 µM): 73.28
inhibition at 0.293 µM ([2]; read-out: Topo IV decatenation inhibition response, P. aeruginosa topo IV, compound 0.293 μM, source data Fig 2B): 3.54%
inhibition at 9.375 µM ([2]; read-out: Topo IV decatenation inhibition response, P. aeruginosa topo IV, compound 9.375 μM, source data Fig 2B): 4.24%
inhibition at 150 µM ([2]; read-out: Topo IV decatenation inhibition response, P. aeruginosa topo IV, compound 150 μM, source data Fig 2B): 58.3%

K. pneumoniae fusion-truncated topoisomerase IV (ParE30-(Glu-Ser)-ParC55) (enzyme)
stoichiometry N [3]: 2

B1: 26-bp palindromic DNA homoduplex (dsDNA)
DNA 1: TTACGTTGTATGATCATACAACGTAA
DNA 2: TTACGTTGTATGATCATACAACGTAA
binding result [4]: binds
